Laboratory results: publication PMC5355811 (Nature Communications, 2017)
Read-outs that look alike come from different tables or passages of the source. Each block holds one compound with its values, some of them ahead of it.

What was measured:
[1] = system: PC9-triple mutant (C797S/T790M/del19) xenograft; conditions: for tumour growth, PC9 triple-mutant xenograft: osimertinib 50 mg kg^−1, brigatinib 75 mg kg^−1 once daily oral, cetuximab 1 mg per mouse three times a week, panitumumab 0.5 mg per mouse two times a week
Method: (§4) Tumour growth was monitored twice weekly by bilateral caliper measurement, and tumour volume was calculated as 0.5 × length × width × width (mm^3). […] The mice whose implanted tumour size was ranked in the top 5% and bottom 5% were excluded from randomization to minimize the variation of tumour sizes. The mice were treated once daily by oral gavage for the indicated period. Relative tumour volume was calculated by dividing by the tumour volume on day 0. The body weights of the mice were measured twice weekly. Implanted tumours were resected from the mice on day 15 of drug treatment and were fixed with formalin. The mice were euthanized when the tumour size exceeded 700 mm^3 within several days. The investigators performing tumour measurements were not blinded to treatment groups. The sample size (minimum n=6 per treatment group) was selected to ensure satisfactory inter-animal reproducibility. The Mann–Whitney U test was used for the statistical analysis of the mice experiments.

[2] = system: PC9 T790M cells (T790M/del19); experiment: CellTiter-Glo cell viability assay, PC9 T790M; format: cell-based; conditions: read-out: IC50, PC9 T790M
Method: (§1) Three-day cell viability assays were carried out by plating 2,000, 1,500 and 2,000 cells per well of Ba/F3, PC9 or MGH121, respectively, into black transparent-bottom 96-well plates. On the same day for Ba/F3 cells and the following day for PC9 and MGH121 cells, the cells were treated with each TKI across a 10-dose range from 0.3 nmol l^−1 to 10 μmol l^−1. After 72 h of drug treatment, cell viability was measured using the CellTiter-Glo assay (Promega).

[3] = system: EGFR phosphorylation in PC9 triple-mutant cells; experiment: Western blotting of EGFR signalling, PC9 triple mutant; format: cell-based
Method: (§2) Tumour tissues or cells grown under the specified conditions were washed with cold PBS before addition of the SDS lysis buffer (100 mM Tris, 1% SDS, 10% glycerol). Lysates were transferred to microtubes, boiled for 5 min at 100 °C and then vortexed. Protein quantification was performed using the BCA Protein Assay Reagent (Pierce) according to the manufacturer's protocol. Western blot analyses were conducted after separation by SDS-PAGE and transferred to polyvinylidene difluoride membranes.

[4] = system: Ba/F3 cells of EGFR-T790M/del19; experiment: Drug sensitivity screening at 100 nM, Ba/F3 EGFR-T790M/del19; format: cell-based; conditions: for viability at 0.1 µM: Mus musculus, BaF3, 72 h, read-out: Relative cell viability (ratio to DMSO control), del19/T790M; for Relative cell viability (% of DMSO control): 100 nM
Method: (§3) After the incubation, cell viability was measured using CellTiter-Glo assay. The relative cell viability was calculated as a ratio of each value to that of the DMSO control.

[5] = system: PC9 triple-mutant cells (C797S/T790M/del19); experiment: CellTiter-Glo cell viability assay, PC9 triple mutant; format: cell-based; conditions: read-out: IC50, PC9 triple
Method: as §1

[6] = system: PC9-T790M (T790M/del19) xenograft; experiment: PC9-T790M xenograft; format: in vivo, Balb-c nu/nu mice; conditions: osimertinib 50 mg kg^−1, brigatinib 75 mg kg^−1
Method: as §4

PC9 parent cells (del19) = experiment: CellTiter-Glo cell viability assay, PC9 parent; format: cell-based; conditions: read-out: IC50, PC9 parent
Method: as §1

[7] = system: Ba/F3 cells of EGFR-del19; experiment: Drug sensitivity screening at 100 nM, Ba/F3 EGFR-del19; format: cell-based; conditions: for viability at 0.1 µM: Mus musculus, BaF3, 72 h, read-out: Relative cell viability (ratio to DMSO control), del19; for Relative cell viability (% of DMSO control) in del19 Ba/F3 cells: 100 nM
Method: as §3

[8] = system: phosphorylation of EGFR in Ba/F3 cells expressing EGFR-C797S/T790M/del19; experiment: Western blotting of EGFR signalling, Ba/F3 triple-del19; format: cell-based; conditions: 6 h
Method: as §2

[9] = system: MGH121 parental cells (T790M/del19); experiment: cells; format: cell-based; conditions: Homo sapiens, read-out: IC50, MGH121-pt
Method: as §1

[10] = system: MGH121-res2 cells (C797S/T790M/del19); experiment: cells; format: cell-based; conditions: Homo sapiens, read-out: IC50, MGH121-res2
Method: as §1

confirmed EGFR T790M = system: confirmed EGFR T790M; set-up: method as in PMID 25923549; conditions: 127 patients with confirmed EGFR T790M, phase 1/2 trial; cited from earlier work
[11] = system: Ba/F3 cells expressing EGFR-C797S/T790M/del19; experiment: CellTiter-Glo cell viability assay, Ba/F3 EGFR-C797S/T790M/del19; format: cell-based; conditions: for IC50: Mus musculus, BaF3, 72 h, Fig. 3b,c, 72 h
Method: as §1

[12] = system: Ba/F3 cells expressing EGFR-T790M/del19; experiment: CellTiter-Glo cell viability assay, Ba/F3 EGFR-T790M/del19; format: cell-based; conditions: Mus musculus
Method: as §1

[13] = system: Ba/F3 cells expressing EGFR-T790M/L858R; experiment: CellTiter-Glo cell viability assay, Ba/F3 EGFR-T790M/L858R; format: cell-based; conditions: Mus musculus, BaF3; Supplementary Fig. 8e; 72 h; read-out: IC50, Ba/F3 T790M/L858R
Method: as §1

[14] = system: Ba/F3 cells expressing EGFR-L858R; experiment: CellTiter-Glo cell viability assay, Ba/F3 EGFR-L858R; format: cell-based; conditions: read-out: IC50, Ba/F3 L858R
Method: as §1

[15] = system: Ba/F3 cells expressing EGFR-del19; experiment: CellTiter-Glo cell viability assay, Ba/F3 EGFR-del19; format: cell-based; conditions: Mus musculus
Method: as §1

[16] = system: Ba/F3 cells expressing EGFR-C797S/T790M/L858R; experiment: CellTiter-Glo cell viability assay, Ba/F3 EGFR-C797S/T790M/L858R; format: cell-based; conditions: Mus musculus, BaF3; Supplementary Fig. 8e; 72 h
Method: as §1

[17] = system: Ba/F3 cells of EGFR-C797S/T790M/del19; experiment: Drug sensitivity screening at 100 nM, Ba/F3 EGFR-C797S/T790M/del19; format: cell-based; conditions: Mus musculus; for viability at 0.1 µM: BaF3, 72 h, 100 nM inhibitor, 72 h, DMSO = 100, mean of three independent experiments (Fig. 1a data)
Method: as §3

[18] = system: cell surface EGFR in PC9 triple-mutant cells; experiment: Flow cytometry of cell surface EGFR; format: cell-based; conditions: 0, 6, 24 and 48 h
EGFR-C797S/T790M/L858R = EGFR-C797S/T790M/L858R (Homo sapiens, UniProt P00533, C797S/L858R/T790M); conditions: inhibition curves shifted with ATP concentration, triple-mutant and wild-type EGFR
Method: The appropriate amount of target proteins calculated on the basis of the ADP-Glo assay manufacturer's protocol was incubated in 96-well half area white plates with serially diluted inhibitor over a 10-dose range from 0.0002, nM to 10 μM for 10 min at room temperature. ATP at concentration of 1, 10, 100 and 1,000 nM was mixed with 100 μg ml^−1 substrate and added to a kinase protein–inhibitor mixture, and then incubated for 60 min at room temperature. After the kinase reaction, an equal volume of ADP-Glo Reagent was added to terminate the kinase reaction, and the remaining ATP was depleted. The Kinase Detection Reagent was added both to convert ADP to ATP and to allow the newly synthesized ATP to be measured using the luciferase/luciferin reaction. The light generated was measured using a luminometer.

[19] = system: A431, A549 and H460 cells; experiment: CellTiter-Glo cell viability assay, non-EGFR-mutated cell lines; format: cell-based; conditions: A431 (EGFR amplification), A549 and H460 (KRAS mutation); 72 h
[20] = 180 mg per day, cited from earlier work
[21] = system: MGH121-res2 (C797S/T790M/del19) xenograft; experiment: MGH121-res2 xenograft; format: in vivo; conditions: brigatinib 75 mg kg^−1 po; cetuximab 1 mg per mouse two times a week
Method: (a,b) MGH121-res2 expressing EGFR-C797S/T790M/del19 were subcutaneously implanted into SCID-beige mice. […] Tumour volume (V) was calculated as 0.5 × length × width^2, and the body weights (B.W.) of the mice were measured twice weekly. N=6. Results are expressed as mean±s.d.

EGFR-mutated lung cancer = conditions: patients with EGFR-mutated lung cancer, phase 1/2 trial; cited from earlier work
[22] = BaF3, Fig. 3c, 72 h, read-out: IC50, Ba/F3 T790M/del19
[23] = Mus musculus, BaF3, Supplementary Fig. 8e, 72 h
[24] = BaF3, Fig. 3c, 72 h, read-out: IC50, Ba/F3 Del19
[25] = 100 nM inhibitor, 72 h, DMSO = 100, mean of three independent experiments (Fig. 1a data)

EGFR-C797S/T790M/L858R, sequence (P00533 712-979 T790M/C797S/L858R): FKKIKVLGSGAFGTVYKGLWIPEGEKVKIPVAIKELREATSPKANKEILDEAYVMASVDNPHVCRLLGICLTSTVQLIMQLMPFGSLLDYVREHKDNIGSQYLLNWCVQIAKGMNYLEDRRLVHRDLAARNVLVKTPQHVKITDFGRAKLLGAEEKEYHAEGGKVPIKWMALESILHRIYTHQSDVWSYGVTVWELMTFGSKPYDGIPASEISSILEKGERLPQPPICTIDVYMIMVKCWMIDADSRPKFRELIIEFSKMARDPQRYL

Compound: C=CC(=O)Nc1cc(Nc2nccc(-c3cn(C)c4ccccc34)n2)c(OC)cc1N(C)CCN(C)C [Osimertinib, osimertinib]
tumour growth, PC9 triple-mutant xenograft [1]: without any superiority to control group
IC50 ([2]; Table 1c, EGFR–TKIs, 72 h): 11.3 nM
EGFR phosphorylation and downstream signalling, PC9 triple-mutant cells [3]: No reduction of the signal pathway
viability at 0.1 µM [4]: 7.61%
IC50 ([5]; Table 1c, EGFR–TKIs, 72 h): 3460 nM
tumour growth, T790M/del19-expressing PC9 xenograft [6]: successfully suppressed the growth
IC50 (PC9 parent cells (del19); Table 1c, EGFR–TKIs, 72 h): 7.46 nM
viability at 0.1 µM [7]: 1.58%
phosphorylation of EGFR and downstream signalling, Ba/F3 triple-del19 [8]: lack of inhibition of EGFR phosphorylation
IC50 ([9]; MGH121, Table 1e, 72 h): 2.58 nM
IC50 ([10]; MGH121, Table 1e, 72 h): 7160 nM
median progression-free survival (confirmed EGFR T790M): 9.6 months
response rate (confirmed EGFR T790M): 61%

Compound: COc1cc(N2CCC(N)CC2)ccc1Nc1ncc(Cl)c(-c2c[nH]c3ccccc23)n1 [AZD3463]
IC50 ([2]; Table 1d, ALK–TKIs, 72 h): 378 nM
IC50 [11]: 132 nM
EGFR phosphorylation and downstream signalling, PC9 triple-mutant cells [3]: mild activity
Relative cell viability (% of DMSO control) ([4]; 72 h, DMSO = 100, experiment 1): 78.5876
Relative cell viability (% of DMSO control) ([4]; 72 h, DMSO = 100, experiment 2): 91.5008
Relative cell viability (% of DMSO control) ([4]; 72 h, DMSO = 100, experiment 3): 89.0461
viability at 0.1 µM [4, 25]: 86.4%
IC50 ([5]; Table 1d, ALK–TKIs, 72 h): 622 nM
IC50 [12, 22]: 175 nM
IC50 [13]: 184 nM
IC50 [14, 23]: 287 nM
viability at 0.1 µM [17]: 89.3%
IC50 [15, 24]: 90 nM
IC50 (PC9 parent cells (del19); Table 1d, ALK–TKIs, 72 h): 253 nM
Relative cell viability (% of DMSO control) in del19 Ba/F3 cells ([7]; 72 h, DMSO = 100, experiment 1): 35.8012
Relative cell viability (% of DMSO control) in del19 Ba/F3 cells ([7]; 72 h, DMSO = 100, experiment 2): 31.981
Relative cell viability (% of DMSO control) in del19 Ba/F3 cells ([7]; 72 h, DMSO = 100, experiment 3): 37.0414
viability at 0.1 µM [7, 25]: 34.9%
IC50 [16]: 168 nM

Compound: Cc1ccc(C(=O)Nc2ccc(CN3CCN(C)CC3)c(C(F)(F)F)c2)cc1C#Cc1cnc2cccnn12 [Ponatinib, ponatinib]
viability at 0.1 µM [4]: 53.5%
inhibition at 0.1 µM ([17]; BaF3, read-out: growth inhibition against EGFR-triple-del19): ~50%
IC50 ([15]; BaF3, 72 h, read-out: IC50, Ba/F3 del19): 126 nM
viability at 0.1 µM [7]: 40.6%
phosphorylation of EGFR and downstream signalling, Ba/F3 triple-del19 [8]: no inhibitory activity

Second part, led by results:

IC50 ([2]; Table 1d, ALK–TKIs, 72 h): 89.3 nM
IC50 [11]: < 100 nM
IC50 ([5]; Table 1d, ALK–TKIs, 72 h): 195 nM
IC50 [12, 22]: 139 nM
IC50 [13]: 36 nM
IC50 [14, 23]: 92.1 nM
IC50 [15, 24]: 36.9 nM
IC50 (PC9 parent cells (del19); Table 1d, ALK–TKIs, 72 h): 46.2 nM
IC50 [16]: 69.2 nM
Compound: COc1cc(N2CCC(N(C)C)CC2)ccc1Nc1ncc(Cl)c(Nc2ccccc2P(C)(C)=O)n1 [AP26113-analog]
change of IC50 by combination with cetuximab, triple-del19 Ba/F3 cells ([11]; with or without cetuximab 10 μg ml^−1, 72 h): approximately three-fold decrease of IC50

IC50 [2]: 244 nM
IC50 [5]: 599 nM
IC50 ([12]; BaF3, 72 h, read-out: IC50, Ba/F3 T790M/del19): 150 nM
IC50 ([12]; BaF3, read-out: IC50, Ba/F3 T790M/del19): 120 nM
IC50 ([14]; Mus musculus, BaF3, 72 h): 207 nM
IC50 [14]: 133 nM
IC50 ([15]; BaF3, 72 h, read-out: IC50, Ba/F3 Del19): 43.7 nM
IC50 ([15]; BaF3, read-out: IC50, Ba/F3 del19): 39.4 nM
IC50 (PC9 parent cells (del19)): 133 nM
IC50 ([10]; MGH121, 72 h): 592 nM
Compound: COc1cc(N2CCC(N3CCN(C)CC3)CC2)ccc1Nc1ncc(Cl)c(Nc2ccccc2P(C)(C)=O)n1 [Brigatinib, brigatinib]
cell surface EGFR level [18]: no reduction
mode of EGFR kinase inhibition (EGFR-C797S/T790M/L858R): competitively affected the ATP-binding site of the EGFR kinase domain
toxicity, PC9 triple-mutant xenograft-bearing mice ([1]; body weight, brigatinib 75 mg kg^−1 daily, with or without cetuximab): without explicit toxicity
tumour growth, PC9 triple-mutant xenograft [1]: significant inhibition of the growth of PC9-triple mutant cells
phosphorylation of EGFR and downstream signalling in tumour samples ([1]; western blotting of PC9-triple mutant tumours from mice): actually inhibited
inhibitory activity (IC50) in cell lines without EGFR mutation [19]: less inhibitory activity to the cell lines without EGFR mutation than afatinib and osimertinib
EGFR phosphorylation and downstream signalling, PC9 triple-mutant cells [3]: inhibited EGFR phosphorylation and its downstream signalling
viability at 0.1 µM [4, 25]: 69.2%
plasma concentration in a steady state ([20]; ref 48): 1,694.3 nM
plasma concentration in a steady state ([20]; ref 49): 1,447 nM
tumour growth, T790M/del19-expressing PC9 xenograft [6]: successfully suppressed the growth
viability at 0.1 µM [17]: 59.2%
inhibition at 0.1 µM ([17]; BaF3, at 100 nM, read-out: growth inhibition against EGFR-triple-del19): ~50%
viability at 0.1 µM [7, 25]: 10.3%
phosphorylation of EGFR and downstream signalling, Ba/F3 triple-del19 [8]: decreased phosphorylation of EGFR and its downstream signalling pathway in a dose-dependent manner
tumour growth, MGH121-res2 xenograft [21]: growth inhibition effect
IC50 ([9]; MGH121, 72 h): 155 nM
cases that achieved partial response (EGFR-mutated lung cancer): two of 42 cases
